In ChEMBL document CHEMBL1134193, “Initial structure-activity relationship of a novel class of nonpeptidyl GnRH receptor antagonists: 2-arylindoles” (Bioorg Med Chem Lett, 2001):

These compounds were tested against T1, Gonadotropin-releasing hormone receptor (Rattus norvegicus) (UniProt P30969) (assay: Percent inhibition of displacement of [125I]- - radio-labeled buserelin from rat Gonadotropin-releasing hormone receptor). Conditions: concentration not given here.
T1 sequence (whole entry): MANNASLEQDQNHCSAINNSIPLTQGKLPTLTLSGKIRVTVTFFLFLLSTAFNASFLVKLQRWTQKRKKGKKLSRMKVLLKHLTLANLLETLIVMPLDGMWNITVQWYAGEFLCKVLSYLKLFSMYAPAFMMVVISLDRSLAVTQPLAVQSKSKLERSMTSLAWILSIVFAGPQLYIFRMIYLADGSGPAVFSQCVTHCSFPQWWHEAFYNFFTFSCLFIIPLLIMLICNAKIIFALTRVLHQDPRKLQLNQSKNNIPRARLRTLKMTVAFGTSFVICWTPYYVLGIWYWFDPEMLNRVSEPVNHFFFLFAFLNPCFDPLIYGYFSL
`COc1ccc(-c2[nH]c3ccccc3c2CCNC(=O)CCCc2ccc(OCc3ccccc3)cc2)cc1OC` gave an inhibition of 0%.

The compounds below were run against T2, Gonadotropin-releasing hormone receptor (Rattus norvegicus, UniProt P30969) (assay: Ability to displace [125I]- - radio-labeled buserelin from rat Gonadotropin-releasing hormone receptor). Conditions: not given.
T2 sequence (P30969 whole entry): T1 sequence (whole entry)
For `CCc1cccc(-c2[nH]c3ccccc3c2CCNCCCCc2ccc(O)cc2)c1`, the IC50 was 900 nM.
Work on `Oc1ccc(CCCCNCCc2c(-c3cc4ccccc4s3)[nH]c3ccccc23)cc1` yielded an IC50 of 2500 nM.
`Oc1ccc(CCCCNCCc2c(-c3ccc(F)cc3)[nH]c3ccccc23)cc1` was tested, and the IC50 was 11000 nM.
`Cn1ccc2cc(-c3[nH]c4ccccc4c3CCNCCCCc3ccc(O)cc3)ccc21` was tested, and the IC50 was 2800 nM.
`COc1ccc(-c2[nH]c3ccccc3c2CCNCCCCCc2ccc(O)cc2)cc1OC` gave an IC50 of 2000 nM.
`Cc1cc(C)cc(-c2[nH]c3ccccc3c2CCNCCCCCc2ccc(O)cc2)c1` was tested, and the IC50 was 200 nM.
With `Cc1cccc(-c2[nH]c3ccccc3c2CCNCCCCc2ccc(O)cc2)c1C` the IC50 was 900 nM.
`COc1ccc(-c2[nH]c3ccccc3c2CCNCCCCCCc2ccc(O)cc2)cc1OC` gave an IC50 of 10000 nM.
Work on `Cc1cccc(-c2[nH]c3ccccc3c2CCNCCCCc2ccc(O)cc2)c1` yielded an IC50 of 200 nM.
`Oc1ccc(CCCCNCCc2c(-c3cc(C(F)(F)F)cc(C(F)(F)F)c3)[nH]c3ccccc23)cc1` gave an IC50 of 1500 nM.
In the case of `Oc1ccc(CCCCNCCc2c(-c3cccc4ccccc34)[nH]c3ccccc23)cc1`, the IC50 is reported as 130 nM.
Compound `COc1ccc(-c2[nH]c3ccccc3c2CCNC[C@@H](O)COc2ccc(O)cc2)cc1OC` has an IC50 of 3000 nM.
With `COc1ccc(-c2[nH]c3ccccc3c2CCNCCCCc2ccc(O)cc2)cc1OC` the IC50 was 2000 nM.
`COc1ccc(-c2[nH]c3ccccc3c2CCNCCc2ccc(O)cc2)cc1OC` was tested, and the IC50 was 4000 nM.
In the case of `Cc1ccc(-c2[nH]c3ccccc3c2CCNCCCCc2ccc(O)cc2)cc1`, the IC50 is reported as 9000 nM.
`Cc1cc(C)cc(-c2[nH]c3ccccc3c2CCNCCCc2ccc(O)cc2)c1` was tested, and the IC50 was 250 nM.
`COc1ccc(-c2[nH]c3ccccc3c2CCNCc2ccc(O)cc2)cc1OC` was tested, and the IC50 was 20000 nM.
In the case of `Oc1ccc(CCCCNCCc2c(-c3cc(Cl)cc(Cl)c3)[nH]c3ccccc23)cc1`, the IC50 is reported as 170 nM.
For `COc1ccc(-c2[nH]c3ccccc3c2CCNCCCCc2ccc([N+](=O)[O-])cc2)cc1OC`, the IC50 was 5000 nM.
`COc1ccc(-c2[nH]c3ccccc3c2CCNCCCc2ccc(O)cc2)cc1OC` was tested, and the IC50 was 6000 nM.
`COc1ccc(-c2[nH]c3ccccc3c2CCNC(=O)CCCc2ccc(O)cc2)cc1OC` gave an IC50 greater than 30000 nM.
In the case of `COc1ccc(-c2[nH]c3ccccc3c2CCNC[C@H](O)COc2ccc(O)cc2)cc1OC`, the IC50 is reported as 3000 nM.
`Cc1cc(C)cc(-c2[nH]c3ccccc3c2CCNCCCCCCc2ccc(O)cc2)c1` gave an IC50 of 600 nM.
`COc1ccc(-c2[nH]c3ccccc3c2CCNC(=O)CCCc2ccc([N+](=O)[O-])cc2)cc1OC` was tested, and the IC50 was greater than 30000 nM.
For `Cc1cc(C)cc(-c2[nH]c3ccccc3c2CCNCCc2ccc(O)cc2)c1`, the IC50 was 200 nM.
Compound `COc1ccc(-c2[nH]c3ccccc3c2CCNCCCCc2ccc(N)cc2)cc1OC` has an IC50 of 10000 nM.
With `Cc1cc(C)cc(-c2[nH]c3ccccc3c2CCNCc2ccc(O)cc2)c1` the IC50 was 9000 nM.
In the case of `COc1ccc(-c2[nH]c3ccccc3c2CCNCCCCc2ccc(OCc3ccccc3)cc2)cc1OC`, the IC50 is reported as 30000 nM.
With `Oc1ccc(CCCCNCCc2c(-c3ccccc3)[nH]c3ccccc23)cc1` the IC50 was 1300 nM.
`Cc1cccc(C)c1-c1[nH]c2ccccc2c1CCNCCCCc1ccc(O)cc1` was tested, and the IC50 was 1700 nM.
With `Cc1cc(C)cc(-c2[nH]c3ccccc3c2CCNCCCCc2ccc(O)cc2)c1` the IC50 was 50 nM.
`COc1ccc(-c2[nH]c3ccccc3c2CCNC[C@H](O)CCc2ccc(O)cc2)cc1OC` was tested, and the IC50 was 2000 nM.
Compound `Oc1ccc(CCCCNCCc2c(-c3ccc4ccccc4c3)[nH]c3ccccc23)cc1` has an IC50 of 2500 nM.
Work on `COc1ccc(-c2[nH]c3ccccc3c2CCNC(=O)CCCc2ccc(N)cc2)cc1OC` yielded an IC50 of 30000 nM.
`Cc1ccccc1-c1[nH]c2ccccc2c1CCNCCCCc1ccc(O)cc1` gave an IC50 of 500 nM.
For `Cc1ccc(C)c(-c2[nH]c3ccccc3c2CCNCCCCc2ccc(O)cc2)c1`, the IC50 was 400 nM.
Compound `Oc1ccc(CCCCNCCc2c(-c3cccc4cnccc34)[nH]c3ccccc23)cc1` has an IC50 of 1900 nM.
`COc1cc(OC)cc(-c2[nH]c3ccccc3c2CCNCCCCc2ccc(O)cc2)c1` gave an IC50 of 700 nM.
Compound `Oc1ccc(CCCCNCCc2c(-c3csc4ccccc34)[nH]c3ccccc23)cc1` has an IC50 of 300 nM.
With `COc1cccc(-c2[nH]c3ccccc3c2CCNCCCCc2ccc(O)cc2)c1` the IC50 was 600 nM.
